{"source": "paper PMC12169662", "about": "“De Novo-Designed APC/C Inhibitors Provide a Rationale for Targeting RING-Type E3 Ubiquitin Ligases” (Journal of Medicinal Chemistry, 2025)", "origin": "cited, not measured here", "target": "APC/C", "conditions": "determined by the same methodology; ref not given; read-out: K i of apcin; cited from earlier work", "protocol": "To quantify the inhibitory effectiveness of H6, its IC50 was determined. To this end, we performed in vitro APC/C ubiquitination assays in the presence of H6 titrated from 0.01 to 100 μM (Figure S17B). […] To distinguish between competitive and noncompetitive inhibition, we determin ..."}
{"smiles": "Cc1ncc([N+](=O)[O-])n1CCOC(=O)NC(Nc1ncccn1)C(Cl)(Cl)Cl", "note": "(stereo not shown) [apcin]", "values": [{"measurement": "Ki", "value": 23, "unit": "µM"}]}
